Entries after “also recorded” stand apart in the source; their conditions may differ.
Legend:
TSLP expression = details: cited from earlier work
DCs [1] = experiment: DC polarization / cytoskeleton architecture by epifluorescence microscopy; assay type: cell-based, human
CD11c+ DCs = assay type: cell-based, human
Langerhans cells (LC) = experiment: Epidermal explant model of LC emigration; assay type: cell-based, human; details: FIGS. 2B and C
Excerpt: Next, epidermal explants were used as a global model to study the emigration of LC.

naive CD4+ T cells = experiment: Priming of naive CD4+ T cells by activated DCs, T cell cytokine profile; assay type: cell-based, human; details: DC:T 1:5, 5-6 days, re-stimulation
Procedure: After 24 h of culture, stimulated CD11c^+ DCs were collected, washed, and co-cultured with allogenic naïve CD4^+ T cells in round-bottomed plates 96-well culture plates (Falcon) at a 1:5 DC: T cell ratio in Yssel's medium (kind gift of Hans Yssel) containing 10% FCS (Hyclone). Peripheral blood naïve CD4^+ T cells were isolated by using CD4 T cell isolation kit II (Miltenyi Biotec) followed by staining for CD45RO-FITC, CD45RA-PE, CD4-APC, and cell sorting of CD45RA^+, CD4^+, CD45RO^− cells (purity>99%) with a FACSAria (BD Bioscience). Standard Th subsets were generated in presence of Dynabeads CD3/CD28 T cell expander (1 bead per cell) (Invitrogen) and 10 ng/ml IL-12 (R&D Systems) for Th1, 25 ng/ml IL-4 (R&D Systems) for Th2 and in absence of any polarizing cytokine for Th0.
After 5-6 days, cells were harvested, extensively washed and viability was determined by trypan blue exclusion. […] Cytokines in culture supernatants were measured by cytometric bead assay (CBA) Flex Sets (BD Bioscience) according to the manufacturer's instruction. IFN-γ-, IL-4-, IL-10-, TNF-producing cells were analysed by intracellular cytokine staining after addition of 10 μg/ml Brefeldin during the last 3 h of re-stimulation. […] Cells were stained with anti-IFN-γ FITC, anti-IL-4 PE, anti-IL-10 PE, anti-TNF PE (BD Pharmingen) washed and then analysed by flow cytometry (FACScan Becton Dickinson).

DCs [2] = experiment: DC activation by surface expression of CD40, CD80, CD86, OX40L
DCs [3] = experiment: DC motility in micro-channel system (confined environment); assay type: cell-based, human
Excerpt: A tissue represents a confined environment for cell migration (Irimia et al., Lab Chip, 2007, 7, 1783-1790). Cells may be “trapped” in narrow spaces, being forced to pass through areas of diverse densities. In order to mimic such in vivo situation, a micro-channel system was used. This system allows quantifying diverse parameters to define the cell movement and to restrain the direction of the mobile cells.
The microfluidic device was fabricated in PDMS (Whitesides G. M., E., O., Takayama S., X., J. & E, I. D. Ann Rev Biomed Eng, 2001 3, 335). The PDMS piece, with embedded microchannels and holes for the inlet and outlet ports, and a glass Iwaki chamber (Milian) were activated in a plasma cleaner (PDC-32G Harrick) and bonded to each other. The chambers were left under strong vacuum for 5 min in the plasma cleaner and plasma was turned on to render the top surface of the PDMS and the inlet and outlet holes hydrophilic. Fibronectin solution at 50 μg/ml was placed on top of the inlet and outlet ports. The solution spontaneously invaded the channels and all air bubbles were resorbed into the PDMS due to the previous vacuum treatment. Fibronectin was incubated for 1 h at room temperature, then washed with PBS then replaced by cell culture medium. The cells were concentrated and micropipette tips containing the cells were inserted in the inlet port. Cells fell inside the port, bound to the bottom coverslip and started migrating. They entered the channels spontaneously, without any mechanical or chemical stimulation.
Phase contrast […], using an automated microscope (Nikon ECLIPSE TE1000-E, and Olympus X71, with a Marzhauser motorized stage and an HQ2 Roper camera) equipped with an environmental chamber for temperature, humidity and CO2 (Life Imaging Services). Cells remained alive and motile during the entire period of recording.
To analyse the importance of myosin II in DCs migration, cells were pre-treated with […] blebbistatin and then concentrated and inserted in the microchannels.

CC1=C(/C=C/C(C)=C\C=C\C(C)=C\C(=O)O)C(C)(C)CCC1 [9-cis-retinoic acid]
regulation of TSLP expression (TSLP expression): negative regulators of TSLP expression

c1ccc2ncncc2c1 [quinazoline]
regulation of TSLP expression (TSLP expression): negative regulators of TSLP expression

TSLP: cytokine of the IL-7 family produced by epithelial cells; recombinant from R&D Systems
DC polarization (actin cytoskeleton morphology) (DCs [1]): extremely polarized | DC migration in transwell (CD11c+ DCs): highly efficient for migration | time after TSLP exposure at which migration started (CD11c+ DCs): 3 h | migration of CD1a+ Langerin+ TSLP-receptor+ CD80+ cells from epidermal explants (Langerhans cells (LC)): significantly increased; also recorded: more efficient than TNFa | T cell cytokine profile induced by activated DC (naive CD4+ T cells): Th2 profile | DC activation based on surface CD40, CD80 and CD86 (DCs [2]; 24 h of culture): strong up-regulation | surface OX40-ligand (OX40L) expression on DC (DCs [2]; 48 h of culture): up-regulation | increase in capacity of DCs to enter micro-channels vs control medium (DCs [3]; 3 h time-lapse, n=3): 4 fold | median velocity of DC in micro-channels vs medium (DCs [3]; DC pre-cultured in medium or TSLP): no significant difference

Cc1ccc2c(c1)C(=O)C1(O)CCN(c3ccccc3)C1=N2 (centres unmarked) [blebbistatin, reference compound]
morphology of TSLP-DCs under myosin II inhibition (DCs [1]; TSLP with 20 nM blebbistatin, 12 h): extremely elongated cellular shape | blebbistatin dose inhibiting TSLP-induced DC migration (CD11c+ DCs): 20 nM | effect on TSLP-induced DC entry into micro-channels (DCs [3]; blebbistatin 50 nM pre-culture): significantly inhibited

From US20120114596A1, “TSLP PROMOTES IMMUNE EVASION AND PERSISTENCE OF VIRUSES” (priority 2009, published 2012)
